Source: PubChem BioAssay AID1845207 (Molecular Pharmacology Branch, DTP, NCI, 2023)
pIC50: −log10 of the molar value. Values joined by “and” are separate entries in the source; they are usually repeats but may differ in a detail not shown here. Equal values may be shown once.

Test system: NCI-H1876 tumor spheroid viability
Assay: Anticancer human tumor NCI-H1876 cell line growth inhibition;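 also: spheroids exposed to compounds for seven days before the viability read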;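 as to viability, T/C: percent of DMSO vehicle control viability so 100% = vehicle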
Conditions: spheroids with HUVEC and MSC; for viability, T/C: stronger effect = lower value
Outline: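 Complex spheroids of malignant cells with endothelial cells and mesenchymal stem cells; agents alone or combined, from near clinical Cmax (or 10 microM if unknown) down in half-log steps, 0.25% DMSO final.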

[1] = curve of first compound, second compound 0.003 µM
[2] = second compound 0.003 µM, first compound 0.00949 µM
[3] = second compound 0.003 µM, first compound 0.03 µM
[4] = second compound 0.003 µM, first compound 0.0949 µM
[5] = second compound 0.003 µM, first compound 0.3 µM
[6] = second compound 0.003 µM, first compound 0.949 µM
[7] = second compound 0.003 µM, first compound 3 µM

Q: How did the pIC50 [1] turn out when `Cc1sc2c(c1C)C(c1ccc(Cl)cc1)=NC(CC(=O)Nc1ccc(O)cc1)c1nnc(C)n1-2` (configuration not stated) + CC[C@@]1(O)C(=O)OCc2c1cc1n(c2=O)Cc2cc3c(CN(C)C)c(O)ccc3nc2-1 was run?
A: 7.50

Q: And the pIC50 (curve of first compound, second compound 0.00949 µM)?
A: > 8.02

Q: What about the pIC50 (curve of first compound, second compound 0.03 µM) of the same compound?
A: > 8.02

Q: And the pIC50 (curve of first compound, second compound 0.0949 µM)?
A: > 8.02

Q: And the pIC50 (curve of first compound, second compound 0.3 µM)?
A: > 8.02

Q: And the viability, T/C [2]?
A: 70.7%

Q: And the viability, T/C [3]?
A: 52.3%

Q: And the viability, T/C [4]?
A: 25.6%

Q: And the viability, T/C [5]?
A: 15.8%

Q: And the viability, T/C [6]?
A: 8.93%

Q: And the viability, T/C [7]?
A: 5.64%

Q: And the viability, T/C (second compound 0.00949 µM, first compound 0.00949 µM)?
A: 30.6%

Q: What about the viability, T/C (second compound 0.00949 µM, first compound 0.03 µM) of the same compound?
A: 46.8%

Q: And the viability, T/C (second compound 0.00949 µM, first compound 0.0949 µM)?
A: 16.6%

Q: And the viability, T/C (second compound 0.00949 µM, first compound 0.3 µM)?
A: 12.2%

Q: What about the viability, T/C (second compound 0.00949 µM, first compound 0.949 µM) of the same compound?
A: 7.36%

Q: What about the viability, T/C (second compound 0.00949 µM, first compound 3 µM) of the same compound?
A: 5.57%

Q: And the viability, T/C (second compound 0.03 µM, first compound 0.00949 µM)?
A: 12.2%

Q: What about the viability, T/C (second compound 0.03 µM, first compound 0.03 µM) of the same compound?
A: 30%

Q: And the viability, T/C (second compound 0.03 µM, first compound 0.0949 µM)?
A: 12.2%

Q: What about the viability, T/C (second compound 0.03 µM, first compound 0.3 µM) of the same compound?
A: 10.8%

Q: What about the viability, T/C (second compound 0.03 µM, first compound 0.949 µM) of the same compound?
A: 5.27%

Q: And the viability, T/C (second compound 0.03 µM, first compound 3 µM)?
A: 4.32%

Q: What about the viability, T/C (second compound 0.0949 µM, first compound 0.00949 µM) of the same compound?
A: 7.77%

Q: What about the viability, T/C (second compound 0.0949 µM, first compound 0.03 µM) of the same compound?
A: 8.11%

Q: And the viability, T/C (second compound 0.0949 µM, first compound 0.0949 µM)?
A: 8.71%

Q: What about the viability, T/C (second compound 0.0949 µM, first compound 0.3 µM) of the same compound?
A: 7.87%

Q: And the viability, T/C (second compound 0.0949 µM, first compound 0.949 µM)?
A: 5.5%

Q: And the viability, T/C (second compound 0.0949 µM, first compound 3 µM)?
A: 4%

Q: And the viability, T/C (second compound 0.3 µM, first compound 0.00949 µM)?
A: 3.46%

Q: And the viability, T/C (second compound 0.3 µM, first compound 0.03 µM)?
A: 3.69%

Q: What about the viability, T/C (second compound 0.3 µM, first compound 0.0949 µM) of the same compound?
A: 3.67%

Q: And the viability, T/C (second compound 0.3 µM, first compound 0.3 µM)?
A: 3.02%

Q: What about the viability, T/C (second compound 0.3 µM, first compound 0.949 µM) of the same compound?
A: 2.65%

Q: What about the viability, T/C (second compound 0.3 µM, first compound 3 µM) of the same compound?
A: 1.56%

Q: Which results are given for `Cc1sc2c(c1C)C(c1ccc(Cl)cc1)=NC(CC(=O)Nc1ccc(O)cc1)c1nnc(C)n1-2` (configuration not stated)?
A: viability, T/C (compound 0.00949 µM): 94.3% and 86.8% and 105%; viability, T/C (compound 0.03 µM): 71.5% and 70.6% and 109%; viability, T/C (compound 0.0949 µM): 51.4% and 53% and 109%; viability, T/C (compound 0.3 µM): 33.7% and 35.1% and 81.6%; viability, T/C (compound 0.949 µM): 17% and 16% and 39.7%; viability, T/C (compound 3 µM): 12.9% and 9.5% and 12.3%; pIC50 (curve of compound): 7.01 and 6.95 and 6.15

Q: How did the pIC50 (curve of first compound, second compound 30 pM) turn out when `CNCc1ccc(-c2cc(-c3nc(-c4ccc(S(=O)(=O)C(C)C)cc4)cnc3N)on2)cc1` + COc1cc2c(cc1O)CCNC21CSC2c3c(OC(C)=O)c(C)c4c(c3C(COC1=O)N1C(O)C3Cc5cc(C)c(OC)c(O)c5C(C21)N3C)OCO4 was run?
A: 6.24

Q: And the pIC50 (curve of first compound, second compound 94.9 pM)?
A: 6.65

Q: What about the pIC50 (curve of first compound, second compound 0.0003 µM) of the same compound?
A: > 8.02

Q: What about the pIC50 (curve of first compound, second compound 0.000949 µM) of the same compound?
A: > 8.02

Q: And the pIC50 [1]?
A: > 8.02

Q: And the viability, T/C (second compound 30 pM, first compound 0.00949 µM)?
A: 103%

Q: What about the viability, T/C (second compound 30 pM, first compound 0.03 µM) of the same compound?
A: 103%

Q: And the viability, T/C (second compound 30 pM, first compound 0.0949 µM)?
A: 97.8%

Q: And the viability, T/C (second compound 30 pM, first compound 0.3 µM)?
A: 67.2%

Q: And the viability, T/C (second compound 30 pM, first compound 0.949 µM)?
A: 36.5%

Q: And the viability, T/C (second compound 30 pM, first compound 3 µM)?
A: 16.2%

Q: What about the viability, T/C (second compound 94.9 pM, first compound 0.00949 µM) of the same compound?
A: 94.4%

Q: What about the viability, T/C (second compound 94.9 pM, first compound 0.03 µM) of the same compound?
A: 89%

Q: What about the viability, T/C (second compound 94.9 pM, first compound 0.0949 µM) of the same compound?
A: 70.5%

Q: And the viability, T/C (second compound 94.9 pM, first compound 0.3 µM)?
A: 42.5%

Q: And the viability, T/C (second compound 94.9 pM, first compound 0.949 µM)?
A: 21.2%

Q: What about the viability, T/C (second compound 94.9 pM, first compound 3 µM) of the same compound?
A: 10.1%

Q: What about the viability, T/C (second compound 0.0003 µM, first compound 0.00949 µM) of the same compound?
A: 27.9%

Q: And the viability, T/C (second compound 0.0003 µM, first compound 0.03 µM)?
A: 24.4%

Q: What about the viability, T/C (second compound 0.0003 µM, first compound 0.0949 µM) of the same compound?
A: 16.4%

Q: What about the viability, T/C (second compound 0.0003 µM, first compound 0.3 µM) of the same compound?
A: 12.7%

Q: What about the viability, T/C (second compound 0.0003 µM, first compound 0.949 µM) of the same compound?
A: 9.09%

Q: What about the viability, T/C (second compound 0.0003 µM, first compound 3 µM) of the same compound?
A: 6.61%

Q: And the viability, T/C (second compound 0.000949 µM, first compound 0.00949 µM)?
A: 4.01%

Q: What about the viability, T/C (second compound 0.000949 µM, first compound 0.03 µM) of the same compound?
A: 3.41%

Q: And the viability, T/C (second compound 0.000949 µM, first compound 0.0949 µM)?
A: 3.12%

Q: And the viability, T/C (second compound 0.000949 µM, first compound 0.3 µM)?
A: 3.01%

Q: And the viability, T/C (second compound 0.000949 µM, first compound 0.949 µM)?
A: 4.43%

Q: And the viability, T/C (second compound 0.000949 µM, first compound 3 µM)?
A: 2.48%

Q: And the viability, T/C [2]?
A: 0.56%

Q: And the viability, T/C [3]?
A: 1.11%

Q: What about the viability, T/C [4] of the same compound?
A: 1.21%

Q: And the viability, T/C [5]?
A: 0.84%

Q: And the viability, T/C [6]?
A: 0.9%

Q: What about the viability, T/C [7] of the same compound?
A: 0.8%
